Assay results reported in the supplement of paper PMC10307832.

What was measured:
Assay in all cases: relative viability (nuclei count vs DMSO), 5 days (fraction); higher = more cells survive
[1] = compound: O=C(O)C(Cc1ccccc1[N+](=O)[O-])=NNc1nc(-c2ccc(Cl)c(Cl)c2)cs1 (mixture of isomers) [4EGI-1] + C[C@]1(O)C[C@@H](c2nc(-c3ccc4ccc(-c5ccccc5)nc4c3)c3c(N)nccn32)C1 [Linsitinib] (partner 1 µM)
Outline: (§1)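 Medians of duplicate plates are given as relative viability. That measure is the nuclei count in treated wells divided by the count in vehicle wells. Counts were taken on 4× images of lung cancer cell lines in 1536-well plates, 5 days after pin-tool dosing the day after seeding with one drug alone or a fixed anchor-drug dose plus five library-drug doses (not always all listed) in √10 steps.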

[2] = compound: CN1CCN(CC1)C2=CC(=C(C=C2)NC3=NC=C4C(=N3)N(C5=CC=CC=C5C(=O)N4C)C)OC [XMD8-85] + COc1cccc2cc(-c3nc([C@H]4CC[C@H](C(=O)O)CC4)n4ncnc(N)c34)[nH]c12 [OSI-027] (partner 0.5 µM)
Outline: as §1

[3] = compound: CN1CCN(CC1)C2=CC(=C(C=C2)NC3=NC=C4C(=N3)N(C5=CC=CC=C5C(=O)N4C)C)OC [XMD8-85] + O=C(CCCCCCC(=O)Nc1ccccc1)NO [Vorinostat] (partner 1 µM)
Outline: as §1

[4] = compound: O=C(O)C(Cc1ccccc1[N+](=O)[O-])=NNc1nc(-c2ccc(Cl)c(Cl)c2)cs1 (mixture of isomers) [4EGI-1] + CC1(C)CCC(c2ccc(Cl)cc2)=C(CN2CCN(c3ccc(C(=O)NS(=O)(=O)c4ccc(N[C@H](CCN5CCOCC5)CSc5ccccc5)c(S(=O)(=O)C(F)(F)F)c4)cc3)CC2)C1 [Navitoclax] (partner 0.5 µM)
Outline: as §1

| Cell Line | relative viability ([1]; first compound 0.5 µM) | relative viability ([1]; first compound 1.581 µM) | relative viability ([1]; first compound 5 µM) | relative viability ([1]; first compound 15.81 µM) | relative viability ([1]; first compound 50 µM) | relative viability ([2]; first compound 0.08 µM) | relative viability ([2]; first compound 0.253 µM) | relative viability ([2]; first compound 0.8 µM) | relative viability ([2]; first compound 2.53 µM) | relative viability ([2]; first compound 8 µM) | relative viability ([3]; first compound 0.253 µM) | relative viability ([3]; first compound 0.8 µM) | relative viability ([3]; first compound 2.53 µM) | relative viability ([3]; first compound 8 µM) | relative viability ([3]; first compound 0.08 µM) | relative viability ([4]; first compound 0.5 µM) | relative viability ([4]; first compound 5 µM) | relative viability ([4]; first compound 15.81 µM) | relative viability ([4]; first compound 50 µM) | relative viability ([4]; first compound 1.581 µM) |
| --- | --- | --- | --- | --- | --- | --- | --- | --- | --- | --- | --- | --- | --- | --- | --- | --- | --- | --- | --- | --- |
| NCI-H358 | 0.882 | 0.689 | 0.889 | 0.69 | 0.208 | 0.859 | 0.848 | 0.887 | 0.92 | 0.756 | 0.635 | 0.71 | 0.619 | 0.261 | – | – | – | – | – | – |
| ChaGo-K-1 | – | – | – | – | – | 0.555 | 0.532 | 0.599 | 0.605 | 0.422 | 0.782 | 0.76 | 0.81 | 0.619 | 0.751 | 0.775 | 1.1 | 0.773 | 0.247 | – |
| Calu-6 | 1.11 | 0.729 | 0.995 | 0.851 | 0.9 | – | – | – | – | – | – | – | – | – | – | 0.909 | 1.01 | 0.847 | 0.213 | 0.759 |
| IA-LM | 0.536 | 0.492 | 0.649 | 0.251 | 0.163 | – | – | – | – | – | 0.731 | 0.812 | 0.662 | 0.588 | 0.824 | 0.889 | 0.444 | 0.112 | 0.0676 | 0.751 |
| EBC-1 | 0.992 | 1 | 0.995 | 0.652 | 1.04 | – | – | – | – | – | – | – | – | – | – | 0.525 | 0.624 | 0.308 | 0.142 | 0.402 |
| A549 | 0.825 | – | 0.573 | 0.579 | 0.611 | – | – | – | – | – | – | – | – | – | – | 1.29 | 1.24 | 1.17 | 0.217 | 1.2 |
| NCI-H661 | 0.723 | 0.502 | 0.624 | 0.394 | 0.309 | 0.636 | 0.709 | 0.775 | 0.806 | 0.515 | 0.788 | 0.809 | 0.743 | 0.588 | 0.835 | – | – | – | – | – |
| NCI-H650 | 0.996 | – | 1.24 | 0.915 | 0.732 | 0.564 | 0.527 | 0.467 | 0.492 | 0.338 | 0.388 | 0.433 | 0.465 | 0.295 | 0.447 | – | – | – | – | – |
| ABC-1 | 0.977 | 0.863 | 0.806 | 0.68 | 0.419 | 0.473 | 0.296 | 0.546 | 0.526 | 0.41 | 1.27 | 1.01 | 0.969 | 0.533 | 1.2 | – | – | – | – | – |
| LCLC-103H | 1.09 | 0.994 | 0.955 | 1.03 | 0.887 | 0.428 | 0.441 | 0.487 | – | 0.404 | 0.77 | 0.784 | 0.801 | 0.585 | 0.799 | – | – | – | – | – |
| NCI-H1703 | 1.4 | 0.632 | 1.06 | 1.27 | 0.994 | – | – | – | – | – | – | – | – | – | – | 1.54 | 1.6 | 1.19 | 0.427 | 1.06 |
| NCI-H522 | – | – | – | – | – | 0.659 | 0.747 | 0.66 | 0.828 | 0.596 | 0.877 | 0.918 | 0.884 | 0.654 | 0.936 | – | – | – | – | – |
